Drawing on US8658568B2, “6-amino-2-substituted-5-vinylsilylpyrimidine-4-carboxylic acids and esters and 4-amino-6-substituted-3-vinylsilylpyridine-2-carboxylic acids and esters as herbicides” (Dow AgroSciences, LLC., priority 2011, dated 2014), this text covers pest or weed control for 11 compounds.

Holding throughout (type): in vivo
The subject of assay [1] is ECHCG = barnyardgrass (Echinochloa crus-galli). Nature of the assay: Postemergence herbicidal activity, barnyardgrass. To be noted: post-emergence, 336 h, post-emergent, visual score after 14 days (0 no injury, 100 complete kill), read-out: % Growth Reduction ECHCG; for pest or weed control at 140 g/ha: rate 140 g ai/ha; for pest or weed control at 280 g/ha: rate 280 g ai/ha. As to the method: (§1) Evaluation of Postemergence Herbicidal Activity
(§2) Seeds or nutlets of the desired test plant species were planted in Sun Gro MetroMix® 306 planting mixture, which typically has a pH of 6.0 to 6.8 and an organic matter content of about 30 percent, in plastic pots with a surface area of 64 square centimeters. When required to ensure good germination and healthy plants, a fungicide treatment and/or other chemical or physical treatment was applied. The plants were grown for 7-21 days in a greenhouse with an approximate 15 hour photoperiod which was maintained at about 23-29° C. during the day and 22-28° C. during the night. Nutrients and water were added on a regular basis and supplemental lighting was provided with overhead metal halide 1000-Watt lamps as necessary. The plants were employed for testing when they reached the first or second true leaf stage.
(§3) A weighed amount, determined by the highest rate to be tested, of each test compound was placed in a 25 mL glass vial and was dissolved in 4 mL of a 97:3 v/v (volume/volume) mixture of acetone and dimethyl sulfoxide (DMSO) to obtain concentrated stock solutions. […] The concentrated stock solutions obtained were diluted with 20 mL of an aqueous mixture containing acetone, water, isopropyl alcohol, DMSO, Atplus 411F crop oil concentrate, and Triton® X-155 surfactant in a 48.5:39:10:1.5:1.0:0.02 v/v ratio to obtain spray solutions containing the highest application rates. Additional application rates were obtained by serial dilution of 12 mL of the high rate solution into a solution containing 2 mL of 97:3 (v/v) mixture of acetone and dimethyl sulfoxide (DMSO) and 10 mL of an aqueous mixture containing acetone, water, isopropyl alcohol, DMSO, Atplus 411F crop oil concentrate, and Triton X-155 surfactant in a 48.5:39:10:1.5:1.0:0.02 (v/v) ratio to obtain 1/2 ×, 1/4 ×, 1/8× and 1/16× rates of the high rate. Compound requirements are based upon a 12 mL application volume at a rate of 187 L/ha. Formulated compounds were applied to the plant material with an overhead Mandel track sprayer equipped with a 8002E nozzles calibrated to deliver 187 L/ha over an application area of 0.503 square meters at a spray height of 18 inches (43 cm) above the average plant canopy height. Control plants were sprayed in the same manner with the solvent blank.
(§4) The treated plants and control plants were placed in a greenhouse as described above and watered by sub-irrigation to prevent wash-off of the test compounds. After 14 days, the condition of the test plants as compared with that of the untreated plants was determined visually and scored on a scale of 0 to 100 percent where 0 corresponds to no injury and 100 corresponds to complete kill
(§5) By applying the well-accepted probit analysis as described by J. Berkson in Journal of the […], 48, 565 (1953) and by D. Finney in “Probit Analysis” Cambridge University Press (1952), the above data can be used to calculate GR50 and GR80 values, which are defined as growth reduction factors that correspond to the effective dose of herbicide required to kill or control 50 percent or 80 percent, respectively, of a target plant.

Assay [2] relates to CHEAL = lambsquarters (Chenopodium album). The assay is described as follows: Postemergence herbicidal activity, lambsquarters. To be noted: post-emergence, 336 h, post-emergent, visual score after 14 days (0 no injury, 100 complete kill), read-out: % Growth Reduction CHEAL; for pest or weed control at 140 g/ha: rate 140 g ai/ha; for pest or weed control at 280 g/ha: rate 280 g ai/ha. As to the method:
as §1, §2, §3, §4, §5

The test system of assay [3] is ABUTH = velvetleaf (Abutilon theophrasti). Nature of the assay: Postemergence herbicidal activity, velvetleaf. To be noted: post-emergence, 336 h, post-emergent, visual score after 14 days (0 no injury, 100 complete kill), read-out: % Growth Reduction ABUTH; for pest or weed control at 140 g/ha: rate 140 g ai/ha; for pest or weed control at 280 g/ha: rate 280 g ai/ha. As to the method: as §1, §2, §3, §4, §5

Assay [4] has as its system AMARE = redroot pigweed (Amaranthus retroflexus). The assay is described as follows: Postemergence herbicidal activity, redroot pigweed. As to conditions: post-emergence, 336 h, post-emergent, rate 140 g ai/ha, visual score after 14 days (0 no injury, 100 complete kill), read-out: % Growth Reduction AMARE. How it is done: as §1, §2, §3, §4, §5
In assay [5] the test system is IPOHE = ivyleaf morningglory (Ipomoea hederacea). Nature of the assay: Postemergence herbicidal activity, ivyleaf morningglory. To be noted: post-emergence, 336 h, post-emergent, visual score after 14 days (0 no injury, 100 complete kill), read-out: % Growth Reduction IPOHE; for pest or weed control at 140 g/ha: rate 140 g ai/ha; for pest or weed control at 280 g/ha: rate 280 g ai/ha. How it is done:
as §1, §2, §3, §4, §5

Assay [6] deals with HELAN = sunflower (Helianthus annuus). The assay is described as follows: Postemergence herbicidal activity, sunflower. To be noted: post-emergence, 336 h, post-emergent, visual score after 14 days (0 no injury, 100 complete kill), read-out: % Growth Reduction HELAN; for pest or weed control at 140 g/ha: rate 140 g ai/ha; for pest or weed control at 280 g/ha: rate 280 g ai/ha. As to the method:
as §1, §2, §3, §4, §5

In assay [7] the test system is EPHHL = wild poinsettia (Euphorbia heterophylla). Nature of the assay: Postemergence herbicidal activity, wild poinsettia. To be noted: post-emergence, 336 h, post-emergent, visual score after 14 days (0 no injury, 100 complete kill), read-out: % Growth Reduction EPHHL; for pest or weed control at 140 g/ha: rate 140 g ai/ha; for pest or weed control at 280 g/ha: rate 280 g ai/ha. How it is done:
as §1, §2, §3, §4, §5

Turning to `COC(=O)c1nc(-c2ccc(Cl)c(F)c2F)nc(N)c1/C=C/[Si](C)(C)C` [Compound 1, (E)-methyl 6-amino-2-(4-chloro-2,3-difluorophenyl)-5-(2-(trimethylsilyl)vinyl)pyrimidine-4-carboxylate], the pest or weed control at 140 g/ha was 85% in assay [1]; 100% in assay [2]; 100% in assay [3]; 100% in assay [4]; 80% in assay [5]; 90% in assay [6]. Besides, in assay [7], the pest or weed control at 140 g/ha is 50%.

As for `COC(=O)c1nc(-c2ccc(Cl)cc2F)nc(N)c1/C=C/[Si](C)(C)C` [Compound 3, (E)-methyl 6-amino-2-(4-chloro-2-fluorophenyl)-5-(2-(trimethylsilyl)vinyl)pyrimidine-4-carboxylate], the pest or weed control at 140 g/ha in assay [1] amounted to 0%; in assay [2] it was 100%; in assay [3], 100%; in assay [4] it was 100%; in assay [5], 70%; in assay [6], 90%. In addition, the pest or weed control at 140 g/ha in assay [7] worked out at 100%.

Turning to `CCOC(=O)c1nc(C2CC2)nc(N)c1/C=C/[Si](C)(C)C` [Compound 4, (E)-ethyl 6-amino-2-cyclopropyl-5-(2-(trimethylsilyl)vinyl)pyrimidine-4-carboxylate], the pest or weed control at 140 g/ha in assay [1] was 0%; in assay [2], 100%; in assay [3], 0%; in assay [5], 100%; in assay [6] it was 0%; in assay [7], 100%.

Regarding `C[Si](C)(C)/C=C/c1c(N)nc(-c2ccc(Cl)c(F)c2F)nc1C(=O)O` [Compound 5, (E)-6-amino-2-(4-chloro-2,3-difluorophenyl)-5-(2-(trimethylsilyl)vinyl)pyrimidine-4-carboxylic acid], the pest or weed control at 140 g/ha worked out at 50% in assay [1]; 100% in assay [2]; 100% in assay [3]; 90% in assay [4]; 60% in assay [5]; 90% in assay [6]. Further, the pest or weed control at 140 g/ha in assay [7] is 100%.

Take `C[Si](C)(C)/C=C/c1c(N)nc(-c2ccc(Cl)cc2F)nc1C(=O)O` [Compound 7, (E)-6-amino-2-(4-chloro-2-fluorophenyl)-5-(2-(trimethylsilyl)vinyl)pyrimidine-4-carboxylic acid]: the pest or weed control at 140 g/ha in assay [1] is 80%; in assay [2], 100%; in assay [3], 100%; in assay [4] it was 100%; in assay [5], 70%; in assay [6], 90%. In addition, in assay [7], the pest or weed control at 140 g/ha came out at 100%.

In the case of `C[Si](C)(C)/C=C/c1c(N)nc(C2CC2)nc1C(=O)O` [Compound 8, (E)-6-amino-2-cyclopropyl-5-(2-(trimethylsilyl)vinyl)pyrimidine-4-carboxylic acid], the pest or weed control at 280 g/ha in assay [1] was determined as 0%; in assay [2], 65%; in assay [3], 0%; in assay [5], 78%; in assay [6], 65%; in assay [7] it was 100%.

Regarding `CCO[Si](/C=C/c1c(N)nc(-c2ccc(Cl)c(OC)c2F)nc1C(=O)OC)(OCC)OCC` [Compound 9, (E)-methyl 6-amino-2-(4-chloro-2-fluoro-3-methoxyphenyl)-5-(2-(triethoxysilyl)vinyl)pyrimidine-4-carboxylate], the pest or weed control at 140 g/ha in assay [1] came out at 80%; in assay [2], 100%; in assay [3], 100%; in assay [5] it was 80%; in assay [6], 90%; in assay [7], 100%.

For the compound `COc1c(Cl)ccc(-c2nc(N)c(/C=C/[Si](O)(O)O)c(C(=O)O)n2)c1F` [Compound 10, (E)-6-amino-2-(4-chloro-2-fluoro-3-methoxyphenyl)-5-(2-(trihydroxysilyl)vinyl)pyrimidine-4-carboxylic acid], the pest or weed control at 140 g/ha in assay [1] was determined as 80%; in assay [2] it was 100%; in assay [3], 100%; in assay [5], 80%; in assay [6], 100%; in assay [7] it was 100%.

Regarding `COC(=O)c1nc(-c2ccc(Cl)c(F)c2)c(F)c(N)c1/C=C/[Si](C)(C)C` [Compound 11, (E)-methyl 4-amino-6-(4-chloro-3-fluorophenyl)-5-fluoro-3-(2-(trimethylsilyl)vinyl)picolinate], the pest or weed control at 140 g/ha in assay [1] was 0%; in assay [2], 100%; in assay [3], 80%; in assay [4], 100%; in assay [5] it was 70%; in assay [6], 90%. For the same compound, in assay [7], the pest or weed control at 140 g/ha worked out at 80%.

For the compound `C[Si](C)(C)/C=C/c1c(C(=O)O)nc(-c2ccc(Cl)c(F)c2)c(F)c1N` [Compound 14, (E)-4-amino-6-(4-chloro-3-fluorophenyl)-5-fluoro-3-(2-(trimethylsilyl)vinyl)picolinic acid], the pest or weed control at 140 g/ha in assay [1] amounted to 70%; in assay [2], 100%; in assay [3], 65%; in assay [5], 80%; in assay [6] it was 80%; in assay [7], 100%.

As to `CCc1nc(C(=O)O)c(/C=C/[Si](C)(C)C)c(N)c1F` [Compound 16, (E)-4-amino-6-ethyl-5-fluoro-3-(2-(trimethylsilyl)vinyl)picolinic acid], the pest or weed control at 280 g/ha in assay [1] came to 0%; in assay [2] it was 10%; in assay [3] it was 5%; in assay [5], 60%; in assay [6], 20%; in assay [7], 0%.
